Data taken from ChEMBL document CHEMBL5046241, “The novel therapeutic strategy of vilazodone-donepezil chimeras as potent triple-target ligands for the potential treatment of Alzheimer's disease with comorbid depression” (Eur J Med Chem, 2022).
pEC50, pIC50, pKi: −log10 of the molar value.

test system: not listed separately; assay: in vitro; settings: CD-1, mouse, microsomes

Row | SMILES | half-life at […]
1 | COc1cc2c(cc1OC)C(=O)C(CC1CCN(Cc3ccccc3)CC1)C2 (stereo unspecified) [DONEPEZIL] | 46 min
2 | N#Cc1ccc2[nH]cc(CCCCN3CCN(c4ccc5oc(C(N)=O)cc5c4)CC3)c2c1 [VILAZODONE] | 39.8 min

test system: not listed separately; assay: in vitro; settings: PAMPA
Description: Permeability of compound by PAMPA-BBB assay

Row | SMILES | Papp
3 | N#Cc1ccc2[nH]cc(CCN3CCN(c4ccc(C(=O)CCC5CCN(Cc6cc[nH]c6)CC5)cc4)CC3)c2c1 | 3.15 ×10⁻⁶ cm/s
4 | N#Cc1ccc2[nH]cc(CCCN3CCN(c4ccc(C(=O)CCC5CCN(Cc6ccccc6)CC5)cc4)CC3)c2c1 | 4.38 ×10⁻⁶ cm/s
5 | N#Cc1ccc2[nH]cc(CN3CCN(c4ccc(C(=O)CCC5CCN(Cc6ccsc6)CC5)cc4)CC3)c2c1 | 5.25 ×10⁻⁶ cm/s
6 | N#Cc1ccc2[nH]cc(CCN3CCN(c4ccc(C(=O)CCC5CCN(Cc6ccsc6)CC5)cc4)CC3)c2c1 | 4.77 ×10⁻⁶ cm/s
7 | N#Cc1ccc2[nH]cc(CN3CCN(c4ccc(C(=O)CCC5CCN(Cc6ccccc6)CC5)cc4)CC3)c2c1 | 3.67 ×10⁻⁶ cm/s
8 | N#Cc1ccc2[nH]cc(CN3CCN(c4ccc(C(=O)CCC5CCN(Cc6cc[nH]c6)CC5)cc4)CC3)c2c1 | 3.17 ×10⁻⁶ cm/s
9 | N#Cc1ccc2[nH]cc(CCCN3CCN(c4ccc5c(c4)CC(CC4CCN(Cc6ccccc6)CC4)C5=O)CC3)c2c1 (stereo unspecified) | 3.55 ×10⁻⁶ cm/s
10 | N#Cc1ccc2[nH]cc(CCCCN3CCN(c4ccc5oc(C(N)=O)cc5c4)CC3)c2c1 [VILAZODONE] | 10.8 ×10⁻⁶ cm/s

test system: not listed separately; assay: in vitro; settings: CD-1, mouse, microsomes; remark: another data set of the same source

Row | SMILES | microsomal CLint at […]
11 | COc1cc2c(cc1OC)C(=O)C(CC1CCN(Cc3ccccc3)CC1)C2 (stereo unspecified) [DONEPEZIL] | 34.8 µL/min/mg
12 | C[C@]12CC[C@H]3[C@@H](CCC4=CC(=O)CC[C@@]43C)[C@@H]1CC[C@@H]2O [TESTOSTERONE] | 189 µL/min/mg
13 | N#Cc1ccc2[nH]cc(CCCCN3CCN(c4ccc5oc(C(N)=O)cc5c4)CC3)c2c1 [VILAZODONE] | 30.1 µL/min/mg

test system: not listed separately; assay: in vitro; settings: Sprague-Dawley, rat, microsomes

Row | SMILES | microsomal CLint at […]
14 | COc1cc2c(cc1OC)C(=O)C(CC1CCN(Cc3ccccc3)CC1)C2 (stereo unspecified) [DONEPEZIL] | < 9.6 µL/min/mg
15 | C[C@]12CC[C@H]3[C@@H](CCC4=CC(=O)CC[C@@]43C)[C@@H]1CC[C@@H]2O [TESTOSTERONE] | 597 µL/min/mg
16 | N#Cc1ccc2[nH]cc(CCCCN3CCN(c4ccc5oc(C(N)=O)cc5c4)CC3)c2c1 [VILAZODONE] | 31.6 µL/min/mg

target: Sodium-dependent dopamine transporter (Homo sapiens, UniProt Q01959); assay: not given; settings: not given
Sequence (Q01959 whole entry): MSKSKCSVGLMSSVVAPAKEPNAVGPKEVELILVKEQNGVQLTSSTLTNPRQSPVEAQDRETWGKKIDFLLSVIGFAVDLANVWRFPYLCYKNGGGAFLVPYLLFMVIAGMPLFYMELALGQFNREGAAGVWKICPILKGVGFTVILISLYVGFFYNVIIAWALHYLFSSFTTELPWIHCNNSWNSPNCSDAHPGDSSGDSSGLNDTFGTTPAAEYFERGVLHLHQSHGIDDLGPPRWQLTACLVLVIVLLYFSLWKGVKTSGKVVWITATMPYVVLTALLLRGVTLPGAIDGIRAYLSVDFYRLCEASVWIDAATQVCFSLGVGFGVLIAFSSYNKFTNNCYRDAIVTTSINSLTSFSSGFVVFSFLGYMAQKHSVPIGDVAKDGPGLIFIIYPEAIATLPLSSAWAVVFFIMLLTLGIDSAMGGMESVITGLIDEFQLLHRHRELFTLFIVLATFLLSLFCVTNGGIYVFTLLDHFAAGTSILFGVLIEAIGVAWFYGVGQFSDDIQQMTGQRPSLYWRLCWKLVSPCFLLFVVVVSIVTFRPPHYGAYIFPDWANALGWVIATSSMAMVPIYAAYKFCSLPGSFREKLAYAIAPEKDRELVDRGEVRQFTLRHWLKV

Row | SMILES | pIC50
17 | N#Cc1ccc2[nH]cc(CCCCN3CCN(c4ccc(C(=O)CCC5CCN(Cc6ccccc6)CC5)cc4)CC3)c2c1 | 5.98
18 | N#Cc1ccc2[nH]cc(CCCCN3CCN(c4ccc5oc(C(N)=O)cc5c4)CC3)c2c1 [VILAZODONE] | 6.53

target: 5-hydroxytryptamine receptor 1B (Homo sapiens, UniProt P28222); assay: not given; settings: not given
Sequence (P28222 whole entry): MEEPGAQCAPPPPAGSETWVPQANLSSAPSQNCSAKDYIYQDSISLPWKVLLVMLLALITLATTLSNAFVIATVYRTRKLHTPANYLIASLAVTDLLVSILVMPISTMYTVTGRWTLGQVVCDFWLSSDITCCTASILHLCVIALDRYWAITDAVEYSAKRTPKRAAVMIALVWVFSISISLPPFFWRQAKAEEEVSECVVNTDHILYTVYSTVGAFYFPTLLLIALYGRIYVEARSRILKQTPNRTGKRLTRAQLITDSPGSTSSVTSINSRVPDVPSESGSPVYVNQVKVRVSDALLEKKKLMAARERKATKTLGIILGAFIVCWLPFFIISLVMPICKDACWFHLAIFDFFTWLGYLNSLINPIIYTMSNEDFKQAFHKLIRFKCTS

Row | SMILES | pEC50
19 | CN1CCC[C@@H]1Cc1c[nH]c2ccc(CCS(=O)(=O)c3ccccc3)cc12 | 7.93
20 | N#Cc1ccc2[nH]cc(CCCCN3CCN(c4ccc(C(=O)CCC5CCN(Cc6ccccc6)CC5)cc4)CC3)c2c1 | < 4.52
21 | N#Cc1ccc2[nH]cc(CCCCN3CCN(c4ccc5oc(C(N)=O)cc5c4)CC3)c2c1 [VILAZODONE] | < 4.52

target: Voltage-gated inwardly rectifying potassium channel KCNH2 (Homo sapiens, UniProt Q12809); assay: not given; settings: not given
Sequence (Q12809 whole entry): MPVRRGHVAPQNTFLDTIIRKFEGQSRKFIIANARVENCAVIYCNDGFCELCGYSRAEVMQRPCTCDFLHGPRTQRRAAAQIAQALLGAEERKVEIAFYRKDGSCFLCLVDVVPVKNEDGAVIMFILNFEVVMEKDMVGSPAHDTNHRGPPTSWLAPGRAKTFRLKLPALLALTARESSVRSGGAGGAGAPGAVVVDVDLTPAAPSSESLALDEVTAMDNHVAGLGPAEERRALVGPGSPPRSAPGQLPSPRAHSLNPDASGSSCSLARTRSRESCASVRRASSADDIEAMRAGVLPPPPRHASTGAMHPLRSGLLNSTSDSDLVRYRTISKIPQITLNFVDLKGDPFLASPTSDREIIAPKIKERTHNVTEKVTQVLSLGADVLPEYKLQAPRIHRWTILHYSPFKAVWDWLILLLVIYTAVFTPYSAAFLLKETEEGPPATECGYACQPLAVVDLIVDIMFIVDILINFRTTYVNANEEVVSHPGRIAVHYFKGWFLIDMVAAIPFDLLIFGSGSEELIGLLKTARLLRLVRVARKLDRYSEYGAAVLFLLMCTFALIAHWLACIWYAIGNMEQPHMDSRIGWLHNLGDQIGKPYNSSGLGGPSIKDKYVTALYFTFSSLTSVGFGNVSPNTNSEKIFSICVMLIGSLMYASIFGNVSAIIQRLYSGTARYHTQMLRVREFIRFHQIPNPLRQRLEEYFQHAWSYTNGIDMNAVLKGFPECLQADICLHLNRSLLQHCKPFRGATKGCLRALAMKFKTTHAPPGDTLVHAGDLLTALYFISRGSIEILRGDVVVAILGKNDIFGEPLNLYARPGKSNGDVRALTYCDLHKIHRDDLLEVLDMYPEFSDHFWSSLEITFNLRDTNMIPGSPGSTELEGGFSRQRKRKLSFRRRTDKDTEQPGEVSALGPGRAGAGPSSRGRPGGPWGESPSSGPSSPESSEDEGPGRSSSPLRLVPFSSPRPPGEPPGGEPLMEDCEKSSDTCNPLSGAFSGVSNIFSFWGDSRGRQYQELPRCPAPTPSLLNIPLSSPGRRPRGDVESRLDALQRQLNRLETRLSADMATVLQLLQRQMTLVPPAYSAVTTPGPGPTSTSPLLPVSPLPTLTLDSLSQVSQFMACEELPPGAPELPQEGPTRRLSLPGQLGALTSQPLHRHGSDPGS

Row | SMILES | pIC50
22 | N#Cc1ccc2[nH]cc(CCCCN3CCN(c4ccc(C(=O)CCC5CCN(Cc6ccccc6)CC5)cc4)CC3)c2c1 | < 4.40
23 | N#Cc1ccc2[nH]cc(CCCCN3CCN(c4ccc5oc(C(N)=O)cc5c4)CC3)c2c1 [VILAZODONE] | 5.26

target: Sodium-dependent noradrenaline transporter (Homo sapiens, UniProt P23975); assay: not given; settings: not given
Sequence (P23975 whole entry): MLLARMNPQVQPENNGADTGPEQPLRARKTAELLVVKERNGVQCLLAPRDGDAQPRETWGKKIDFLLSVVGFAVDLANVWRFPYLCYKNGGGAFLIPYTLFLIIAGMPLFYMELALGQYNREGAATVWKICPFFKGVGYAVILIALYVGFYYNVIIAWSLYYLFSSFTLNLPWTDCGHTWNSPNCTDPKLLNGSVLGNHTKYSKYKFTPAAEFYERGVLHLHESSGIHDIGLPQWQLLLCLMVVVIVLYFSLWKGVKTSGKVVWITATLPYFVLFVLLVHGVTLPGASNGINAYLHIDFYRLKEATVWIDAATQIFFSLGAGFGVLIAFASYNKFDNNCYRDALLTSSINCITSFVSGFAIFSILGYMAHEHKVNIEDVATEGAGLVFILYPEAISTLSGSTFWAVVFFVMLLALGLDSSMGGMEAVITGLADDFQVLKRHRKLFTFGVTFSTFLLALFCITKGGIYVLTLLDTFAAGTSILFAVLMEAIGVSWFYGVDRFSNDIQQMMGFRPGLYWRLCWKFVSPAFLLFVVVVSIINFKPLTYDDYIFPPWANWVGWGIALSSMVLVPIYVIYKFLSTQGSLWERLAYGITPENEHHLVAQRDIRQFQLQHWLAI

Row | SMILES | pIC50
24 | N#Cc1ccc2[nH]cc(CCCCN3CCN(c4ccc5oc(C(N)=O)cc5c4)CC3)c2c1 [VILAZODONE] | 6.80

target: Acetylcholinesterase (Homo sapiens, UniProt P22303); assay: Inhibition of […] using acetylthiocholine iodide as substrate incubated for 20 mins by Ellman's method; design: species or system Erythrocyte; settings: not given
Sequence (P22303 whole entry): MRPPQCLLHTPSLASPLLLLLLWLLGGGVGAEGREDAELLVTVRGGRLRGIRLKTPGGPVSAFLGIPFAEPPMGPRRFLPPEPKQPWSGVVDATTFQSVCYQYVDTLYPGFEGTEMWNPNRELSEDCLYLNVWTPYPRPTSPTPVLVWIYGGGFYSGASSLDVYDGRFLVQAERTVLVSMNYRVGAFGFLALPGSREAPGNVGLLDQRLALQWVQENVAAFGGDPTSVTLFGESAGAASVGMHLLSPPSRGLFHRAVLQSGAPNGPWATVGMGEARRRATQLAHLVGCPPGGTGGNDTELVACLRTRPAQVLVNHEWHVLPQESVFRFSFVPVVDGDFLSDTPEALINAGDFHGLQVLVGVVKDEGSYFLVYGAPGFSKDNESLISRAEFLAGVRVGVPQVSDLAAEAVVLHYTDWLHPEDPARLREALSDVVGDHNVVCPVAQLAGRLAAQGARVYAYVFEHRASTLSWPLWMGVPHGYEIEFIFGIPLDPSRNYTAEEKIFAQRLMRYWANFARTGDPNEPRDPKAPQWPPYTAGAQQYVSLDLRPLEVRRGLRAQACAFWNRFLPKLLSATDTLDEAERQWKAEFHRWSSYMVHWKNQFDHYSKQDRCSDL

Row | SMILES | pIC50
25 | N#Cc1ccc2[nH]cc(CCCCN3CCN(c4ccc(C(=O)CCC5CCN(Cc6ccccc6)CC5)cc4)CC3)c2c1 | 9.24

target: T1, Acetylcholinesterase (Mus musculus, UniProt P21836); assay: Inhibition of mouse AChE assessed as inhibition constant using acetylthiocholine iodide as substrate measured every 2 mins by lineweaver-burk plot analysis; settings: not given
T1 sequence (P21836 whole entry): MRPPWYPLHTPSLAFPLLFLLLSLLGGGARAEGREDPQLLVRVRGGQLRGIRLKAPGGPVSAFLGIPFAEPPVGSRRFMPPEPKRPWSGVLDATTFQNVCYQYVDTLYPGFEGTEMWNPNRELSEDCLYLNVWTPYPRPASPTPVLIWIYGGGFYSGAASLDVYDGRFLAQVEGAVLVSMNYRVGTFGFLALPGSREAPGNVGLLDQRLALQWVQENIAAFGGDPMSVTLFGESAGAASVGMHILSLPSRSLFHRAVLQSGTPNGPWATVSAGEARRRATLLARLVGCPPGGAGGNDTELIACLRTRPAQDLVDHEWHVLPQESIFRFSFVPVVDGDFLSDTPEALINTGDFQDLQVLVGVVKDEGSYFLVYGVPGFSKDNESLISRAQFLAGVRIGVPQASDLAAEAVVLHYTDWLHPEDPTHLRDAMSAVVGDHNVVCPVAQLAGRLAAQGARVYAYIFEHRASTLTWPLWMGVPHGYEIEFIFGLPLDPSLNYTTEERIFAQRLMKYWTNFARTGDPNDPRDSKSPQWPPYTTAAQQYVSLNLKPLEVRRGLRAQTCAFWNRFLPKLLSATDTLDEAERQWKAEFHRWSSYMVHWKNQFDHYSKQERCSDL

Row | SMILES | pKi
26 | N#Cc1ccc2[nH]cc(CCCCN3CCN(c4ccc(C(=O)CCC5CCN(Cc6ccccc6)CC5)cc4)CC3)c2c1 | 8.94

target: Cholinesterase (Mus musculus, UniProt Q03311); assay: not given; settings: not given
Sequence (Q03311 whole entry): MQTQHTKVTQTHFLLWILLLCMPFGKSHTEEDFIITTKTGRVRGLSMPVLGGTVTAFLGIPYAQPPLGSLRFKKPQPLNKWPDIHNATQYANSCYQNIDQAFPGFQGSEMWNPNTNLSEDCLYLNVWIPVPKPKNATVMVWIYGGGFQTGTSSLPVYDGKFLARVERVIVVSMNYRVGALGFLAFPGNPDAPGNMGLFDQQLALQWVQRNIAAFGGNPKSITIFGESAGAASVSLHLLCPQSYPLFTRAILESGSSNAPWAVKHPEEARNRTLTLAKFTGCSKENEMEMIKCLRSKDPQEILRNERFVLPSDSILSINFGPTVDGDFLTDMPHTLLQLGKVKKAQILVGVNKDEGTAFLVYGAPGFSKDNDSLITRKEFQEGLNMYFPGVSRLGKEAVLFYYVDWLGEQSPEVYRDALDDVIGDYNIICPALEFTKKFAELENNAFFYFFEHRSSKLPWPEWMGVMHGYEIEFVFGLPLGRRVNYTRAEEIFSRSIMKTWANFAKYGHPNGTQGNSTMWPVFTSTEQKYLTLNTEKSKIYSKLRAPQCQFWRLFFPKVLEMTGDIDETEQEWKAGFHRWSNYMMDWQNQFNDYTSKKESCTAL

Row | SMILES | pIC50
27 | N#Cc1ccc2[nH]cc(CCN3CCN(c4ccc(C(=O)CCC5CCN(Cc6cc[nH]c6)CC5)cc4)CC3)c2c1 | 5.45
28 | N#Cc1ccc2[nH]cc(CCCCN3CCN(c4ccc(C(=O)CCC5CCN(Cc6ccccc6)CC5)cc4)CC3)c2c1 | 5.66
29 | N#Cc1ccc2[nH]cc(CCCN3CCN(c4ccc(C(=O)CCC5CCN(Cc6ccccc6)CC5)cc4)CC3)c2c1 | 5.83
30 | N#Cc1ccc2[nH]cc(CN3CCN(c4ccc(C(=O)CCC5CCN(Cc6ccsc6)CC5)cc4)CC3)c2c1 | 6.04
31 | N#Cc1ccc2[nH]cc(CCN3CCN(c4ccc(C(=O)CCC5CCN(Cc6ccsc6)CC5)cc4)CC3)c2c1 | 5.73
32 | N#Cc1ccc2[nH]cc(CN3CCN(c4ccc(C(=O)CCC5CCN(Cc6ccccc6)CC5)cc4)CC3)c2c1 | 6.01
33 | N#Cc1ccc2[nH]cc(CN3CCN(c4ccc(C(=O)CCC5CCN(Cc6cc[nH]c6)CC5)cc4)CC3)c2c1 | 5.94
34 | N#Cc1ccc2[nH]cc(CCCN3CCN(c4ccc5c(c4)CC(CC4CCN(Cc6ccccc6)CC4)C5=O)CC3)c2c1 (stereo unspecified) | 6.26

target: T2, 5-hydroxytryptamine receptor 1A (Homo sapiens, UniProt P08908); assay: not given; settings: not given
T2 sequence (P08908 whole entry): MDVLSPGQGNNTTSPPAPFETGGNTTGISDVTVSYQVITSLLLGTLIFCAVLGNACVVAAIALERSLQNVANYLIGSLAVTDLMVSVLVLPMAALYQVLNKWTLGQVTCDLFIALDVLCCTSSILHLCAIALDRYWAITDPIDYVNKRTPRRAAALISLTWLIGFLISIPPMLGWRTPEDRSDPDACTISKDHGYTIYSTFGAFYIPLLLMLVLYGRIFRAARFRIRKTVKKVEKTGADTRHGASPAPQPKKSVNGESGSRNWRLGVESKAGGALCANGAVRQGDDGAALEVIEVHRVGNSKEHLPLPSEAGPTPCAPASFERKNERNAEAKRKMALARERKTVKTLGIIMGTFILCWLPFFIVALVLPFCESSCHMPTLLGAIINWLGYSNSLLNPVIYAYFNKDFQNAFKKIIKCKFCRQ

Row | SMILES | pEC50
35 | N#Cc1ccc2[nH]cc(CCN3CCN(c4ccc(C(=O)CCC5CCN(Cc6cc[nH]c6)CC5)cc4)CC3)c2c1 | < 6.00
36 | N#Cc1ccc2[nH]cc(CCCCN3CCN(c4ccc(C(=O)CCC5CCN(Cc6ccccc6)CC5)cc4)CC3)c2c1 | 7.23
37 | N#Cc1ccc2[nH]cc(CCCN3CCN(c4ccc(C(=O)CCC5CCN(Cc6ccccc6)CC5)cc4)CC3)c2c1 | 7.18
38 | N#Cc1ccc2[nH]cc(CN3CCN(c4ccc(C(=O)CCC5CCN(Cc6ccsc6)CC5)cc4)CC3)c2c1 | < 6.00
39 | N#Cc1ccc2[nH]cc(CCN3CCN(c4ccc(C(=O)CCC5CCN(Cc6ccsc6)CC5)cc4)CC3)c2c1 | < 6.00
40 | N#Cc1ccc2[nH]cc(CN3CCN(c4ccc(C(=O)CCC5CCN(Cc6ccccc6)CC5)cc4)CC3)c2c1 | < 6.00
41 | N#Cc1ccc2[nH]cc(CN3CCN(c4ccc(C(=O)CCC5CCN(Cc6cc[nH]c6)CC5)cc4)CC3)c2c1 | < 6.00
42 | N#Cc1ccc2[nH]cc(CCCN3CCN(c4ccc5c(c4)CC(CC4CCN(Cc6ccccc6)CC4)C5=O)CC3)c2c1 (stereo unspecified) | 6.50

test system: not listed separately; assay: in vitro; settings: Sprague-Dawley, rat, microsomes; remark: another data set of the same source

Row | SMILES | half-life at […]
43 | COc1cc2c(cc1OC)C(=O)C(CC1CCN(Cc3ccccc3)CC1)C2 (stereo unspecified) [DONEPEZIL] | > 145 min
44 | N#Cc1ccc2[nH]cc(CCCCN3CCN(c4ccc5oc(C(N)=O)cc5c4)CC3)c2c1 [VILAZODONE] | 43.8 min

target: T1, Acetylcholinesterase; assay: biochemical; settings: not given

Row | SMILES | pIC50
45 | N#Cc1ccc2[nH]cc(CCN3CCN(c4ccc(C(=O)CCC5CCN(Cc6cc[nH]c6)CC5)cc4)CC3)c2c1 | 8.45
46 | N#Cc1ccc2[nH]cc(CCCCN3CCN(c4ccc(C(=O)CCC5CCN(Cc6ccccc6)CC5)cc4)CC3)c2c1 | 8.64
47 | N#Cc1ccc2[nH]cc(CCCN3CCN(c4ccc(C(=O)CCC5CCN(Cc6ccccc6)CC5)cc4)CC3)c2c1 | 8.66
48 | N#Cc1ccc2[nH]cc(CN3CCN(c4ccc(C(=O)CCC5CCN(Cc6ccsc6)CC5)cc4)CC3)c2c1 | 8.63
49 | N#Cc1ccc2[nH]cc(CCN3CCN(c4ccc(C(=O)CCC5CCN(Cc6ccsc6)CC5)cc4)CC3)c2c1 | 8.59
50 | N#Cc1ccc2[nH]cc(CN3CCN(c4ccc(C(=O)CCC5CCN(Cc6ccccc6)CC5)cc4)CC3)c2c1 | 8.19
51 | N#Cc1ccc2[nH]cc(CN3CCN(c4ccc(C(=O)CCC5CCN(Cc6cc[nH]c6)CC5)cc4)CC3)c2c1 | 8.47
52 | N#Cc1ccc2[nH]cc(CCCN3CCN(c4ccc5c(c4)CC(CC4CCN(Cc6ccccc6)CC4)C5=O)CC3)c2c1 (stereo unspecified) | 8.36
53 | N#Cc1ccc2[nH]cc(CCCCN3CCN(c4ccc5oc(C(N)=O)cc5c4)CC3)c2c1 [VILAZODONE] | 4.67

target: Sodium-dependent serotonin transporter (Homo sapiens, UniProt P31645); assay: not given; assay type: cell-based, HEK293; settings: not given
Sequence (P31645 whole entry): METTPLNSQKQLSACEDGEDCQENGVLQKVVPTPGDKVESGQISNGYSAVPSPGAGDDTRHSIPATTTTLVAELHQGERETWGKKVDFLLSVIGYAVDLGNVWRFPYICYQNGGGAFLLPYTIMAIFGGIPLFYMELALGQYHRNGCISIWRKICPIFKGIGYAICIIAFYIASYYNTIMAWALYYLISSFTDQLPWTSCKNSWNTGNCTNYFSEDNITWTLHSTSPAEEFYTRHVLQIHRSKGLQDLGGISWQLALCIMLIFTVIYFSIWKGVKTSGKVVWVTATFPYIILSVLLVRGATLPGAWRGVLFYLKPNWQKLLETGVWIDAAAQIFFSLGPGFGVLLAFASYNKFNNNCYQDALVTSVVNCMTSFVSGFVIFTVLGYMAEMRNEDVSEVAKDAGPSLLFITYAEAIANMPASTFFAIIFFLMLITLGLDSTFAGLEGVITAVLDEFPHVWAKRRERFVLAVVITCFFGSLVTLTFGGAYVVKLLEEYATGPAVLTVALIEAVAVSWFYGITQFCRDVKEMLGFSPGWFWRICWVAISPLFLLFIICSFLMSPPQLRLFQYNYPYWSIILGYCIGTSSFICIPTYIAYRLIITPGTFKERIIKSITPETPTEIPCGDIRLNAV

Row | SMILES | pIC50
54 | N#Cc1ccc2[nH]cc(CCN3CCN(c4ccc(C(=O)CCC5CCN(Cc6cc[nH]c6)CC5)cc4)CC3)c2c1 | 8.08
55 | N#Cc1ccc2[nH]cc(CCCCN3CCN(c4ccc(C(=O)CCC5CCN(Cc6ccccc6)CC5)cc4)CC3)c2c1 | 7.53
56 | N#Cc1ccc2[nH]cc(CCCN3CCN(c4ccc(C(=O)CCC5CCN(Cc6ccccc6)CC5)cc4)CC3)c2c1 | 7.40
57 | N#Cc1ccc2[nH]cc(CN3CCN(c4ccc(C(=O)CCC5CCN(Cc6ccsc6)CC5)cc4)CC3)c2c1 | 7.12
58 | N#Cc1ccc2[nH]cc(CCN3CCN(c4ccc(C(=O)CCC5CCN(Cc6ccsc6)CC5)cc4)CC3)c2c1 | 7.47
59 | N#Cc1ccc2[nH]cc(CN3CCN(c4ccc(C(=O)CCC5CCN(Cc6ccccc6)CC5)cc4)CC3)c2c1 | 7.26
60 | N#Cc1ccc2[nH]cc(CN3CCN(c4ccc(C(=O)CCC5CCN(Cc6cc[nH]c6)CC5)cc4)CC3)c2c1 | 7.92
61 | N#Cc1ccc2[nH]cc(CCCN3CCN(c4ccc5c(c4)CC(CC4CCN(Cc6ccccc6)CC4)C5=O)CC3)c2c1 (stereo unspecified) | 7.74
